Experimental data taken from patent publication US12503453B2, “USP7 inhibition” (Dana-Farber Cancer Institute, Inc., priority 2018, dated 2025).

Tests used:
[1] = molecular target: USP7 catalytic domain (Homo sapiens (Human), UniProt Q93009); experiment: MS labeling of purified USP7 catalytic domain (intact MS, CE-MS); assay type: binding
Procedure: Purified USP7 catalytic domain was diluted to 20 μM in 10 μL labeling buffer (20 mM HEPES pH 7.5, 150 mM NaCl, 1 mM TCEP) and incubated for the indicated times with 50 μM (2.5×) compound. After incubation, samples were flash frozen in liquid nitrogen and stored at −80° C. until analysis.
Intact mass analysis was performed by injecting 5 μg USP7 catalytic domain onto a self-packed reversed phase column ( 1/32″ O.D.×500 um I.D., 5 cm of POROS 10R2 resin). After desalting, protein was eluted with an HPLC gradient (0-100% B in 4 minutes, A=0.2M acetic acid in water, B=0.2 M acetic acid in acetonitrile, flow rate ˜30 μL/min) into an LTQ ion trap mass spectrometer (ThermoFisher Scientific, San Jose, CA). Mass spectra were deconvoluted using MagTran1.03b2 software. Zhang, Z. & Marshall, A. G. A universal algorithm for fast and automated charge state deconvolution of electrospray mass-to-charge ratio spectra. J. Am. Soc. Mass Spectrom. 9, 225-233 (1998).
To identify sites of covalent modification, treated protein was reduced (10 mM dithiothreitol), alkylated (22.5 mM iodoacetamide), and digested with trypsin overnight at 37° C. Peptides were desalted using SP3 (Hughes, C. S. et al. Ultrasensitive proteome analysis using paramagnetic bead technology. Mol. Syst. Biol. 10, 757-757 (2014)), dried by vacuum centrifugation, and reconstituted in 1% formic acid/50% acetonitrile with 100 mM ammonium acetate. Peptides were then analyzed by CE-MS using a ZipChip CE system and autosampler (908 Devices, Boston, MA) interfaced to a QExactive HF mass spectrometer (ThermoFisher Scientific, San Jose, CA). Peptide solution was loaded for 30 seconds, and the mass spectrometer was operated in data dependent mode and subjected the 5 most abundant ions in each MS scan (60 k resolution, 3E6 target, lock mass enabled) to MS/MS (15 k resolution, 1E5 target, 100 ms max inject time). Dynamic exclusion was enabled with a repeat count of 1 and an exclusion time of 6 seconds. […]

[2] = molecular target: USP7-F291N (Homo sapiens (Human), UniProt Q93009, F291N); experiment: Ub-AMC assay with mutant USP7-F291N; assay type: biochemical; conditions: 6-hr pre-incubation
Sequence of USP7-F291N (Q93009 whole entry F291N): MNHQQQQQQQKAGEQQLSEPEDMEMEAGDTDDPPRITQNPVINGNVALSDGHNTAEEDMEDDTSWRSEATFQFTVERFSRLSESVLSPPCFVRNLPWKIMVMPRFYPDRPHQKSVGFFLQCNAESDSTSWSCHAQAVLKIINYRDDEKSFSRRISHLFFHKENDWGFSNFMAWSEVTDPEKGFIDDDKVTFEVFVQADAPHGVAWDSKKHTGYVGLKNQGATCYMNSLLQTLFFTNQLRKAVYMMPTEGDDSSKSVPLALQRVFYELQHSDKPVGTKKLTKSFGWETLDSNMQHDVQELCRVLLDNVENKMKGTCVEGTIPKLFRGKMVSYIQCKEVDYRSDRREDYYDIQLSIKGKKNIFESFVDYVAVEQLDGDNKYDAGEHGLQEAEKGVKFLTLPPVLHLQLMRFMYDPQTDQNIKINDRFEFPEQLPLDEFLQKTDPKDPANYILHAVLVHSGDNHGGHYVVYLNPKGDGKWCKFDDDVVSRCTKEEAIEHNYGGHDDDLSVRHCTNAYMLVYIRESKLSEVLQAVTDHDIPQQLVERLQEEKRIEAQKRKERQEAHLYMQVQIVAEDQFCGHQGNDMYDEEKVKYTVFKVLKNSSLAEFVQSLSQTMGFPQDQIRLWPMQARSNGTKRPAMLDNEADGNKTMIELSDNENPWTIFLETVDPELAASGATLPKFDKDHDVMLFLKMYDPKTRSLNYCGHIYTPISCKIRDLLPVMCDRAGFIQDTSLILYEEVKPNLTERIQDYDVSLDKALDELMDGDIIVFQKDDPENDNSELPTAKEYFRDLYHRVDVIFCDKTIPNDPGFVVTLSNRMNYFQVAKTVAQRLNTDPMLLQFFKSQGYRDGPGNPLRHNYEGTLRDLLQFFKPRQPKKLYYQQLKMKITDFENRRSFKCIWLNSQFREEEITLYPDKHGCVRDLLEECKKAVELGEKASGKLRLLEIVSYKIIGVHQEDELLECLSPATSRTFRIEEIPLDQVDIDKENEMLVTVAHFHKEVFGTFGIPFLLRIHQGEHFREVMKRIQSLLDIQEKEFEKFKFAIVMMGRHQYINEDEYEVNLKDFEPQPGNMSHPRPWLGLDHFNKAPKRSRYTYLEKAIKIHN
Procedure: Full length USP7 was tested for its activity in Ubiquitin-AMC assay in presence or absence of inhibitors. USP7 (5 nM) was pre-incubated for 6 hours at room temperature with different concentrations of inhibitors or DMSO as a control in 50 mM HEPES pH 7.5, 0.5 mM EDTA, 11 μM ovalbumin, and 5 mM DTT. Ubiquitin-AMC (Boston Biochem) was then added to a final concentration of 500 nM. The initial rate of the reaction was measured by collecting fluorescence data at one minute intervals over 30-minute period using a Clariostar fluorescence plate reader at excitation and emission wavelength of 345 and 445 nm respectively. The calculated initial rate values were plotted against inhibitor concentrations to determine IC50s. All the experimental data were plotted using Prism GraphPad. All assays for each compound were performed at least twice for each compound.

[3] = molecular target: USP7 (Homo sapiens (Human), UniProt Q93009); experiment: Live cell treatment and competitive ABPP with HA-Ub-VS; assay type: cell-based; conditions: live cell treatment, 6 hr; read-out: IC50 of USP7 inhibition in cyto
Sequence of USP7 (Q93009 whole entry): as the sequence (Q93009 whole entry F291N) above, with N291F counted along it
Procedure: HA-Ub-VS experiments were performed as previously described in Lamberto, I. et al. Structure-Guided Development of a Potent and […] Selective Non-covalent Active-Site Inhibitor of USP7. Cell Chem. Biol. 24, 1490-1500 (2017). Briefly, target engagement lysis buffer (50 mM Tris pH 8.0, 150 mM NaCl, 5 mM MgCl2, 0.5 mM EDTA, 0.5% NP-40, 10% glycerol, 1 mM TCEP, protease and phosphatase inhibitors) was added to cell pellets on ice. Lysate was cleared by centrifugation and diluted to 1.67 mg/mL. Where indicated, 30 μL lysate was then incubated with inhibitors or DMSO for the indicated timepoints. 1 μM HA-Ub-VS was then added to the lysate and incubated at RT for the indicated time points. Labeling reactions were quenched with 4×LDS sample buffer (Thermo Fisher B0007) supplemented with 10% BME, vortexed vigorously, and heated to 95° C. for 5 minutes. Samples were resolved by SDS-PAGE and analyzed by Western blot with the indicated antibodies.

Sequence of USP7 catalytic domain (Q93009 208-560): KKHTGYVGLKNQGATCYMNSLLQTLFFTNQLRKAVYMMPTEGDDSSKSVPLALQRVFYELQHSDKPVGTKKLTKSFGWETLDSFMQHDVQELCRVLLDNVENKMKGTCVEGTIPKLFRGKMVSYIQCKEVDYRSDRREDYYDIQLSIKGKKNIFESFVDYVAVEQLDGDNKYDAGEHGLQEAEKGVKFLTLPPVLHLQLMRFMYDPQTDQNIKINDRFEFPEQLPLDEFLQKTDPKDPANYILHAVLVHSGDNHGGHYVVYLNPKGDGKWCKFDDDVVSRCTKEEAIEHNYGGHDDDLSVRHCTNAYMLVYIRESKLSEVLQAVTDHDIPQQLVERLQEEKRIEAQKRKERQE

CN1CCN(CCC(=O)Nc2ccc3c(=O)n(CC4(O)CCN(C(=O)[C@@H](CCCNC(=O)c5ccc6c(Cl)c7c(nc6c5)CCCC7)Cc5ccccc5)CC4)cnc3c2)CC1 [compound 6, (S)—N-(4-benzyl-5-(4-hydroxy-4-((7-(3-(4-methylpiperazin-1-yl)propanamido)-4-oxoquinazolin-3(4H)-yl)methyl)piperidin-1-yl)-5-oxopentyl)-9-chloro-5,6,7,8-tetrahydroacridine-3-carboxamide]
site of covalent modification (MS/MS) [1]: binding to the catalytic residue, C223 | labeling of USP7 catalytic domain by MS ([1]; 15 minutes incubation): Quantitative labeling of USP7 | loss in potency compared to wild-type enzyme [2]: 100 fold | IC50 [3]: 39 nM
